Source: patent US20070280972A1, “Adhesive solid gel-forming formulations for dermal drug delivery” (ZARS, Inc., priority 2006, published 2007)
Where two headings read alike, the source gives them in different places.

Assays:
[1] = In vitro skin flux, Franz diffusion cell, hairless mouse skin; conditions: for steady state flux in solid gel-forming formulation compared with flux-enabling non-volatile solvent alone: Table 16 vs solvent tables; for Avg. Flux / Average Flux: mean and st. dev of three; for Skin Flux: excess drug, linear region 4-8 hours, mean ± SD of three
[2] = Estimated therapeutically sufficient flux (steady state flux of marketed products, in vitro)
[3] = In vitro skin flux, Franz diffusion cell, human epidermal membrane / human cadaver skin; type: in vitro ADME; conditions: for Skin Flux: 0.1% (w/w) clobetasol propionate, human cadaver skin (HEM), linear region 6-28 hours, mean ± SD of three
[4] = as above; type: in vitro ADME; conditions: for duration over which steady-state delivery is shown: cumulative amount delivered across human cadaver skin from a solidified gel formulation (FIG. 1, FIG. 2)
[5] = pH 7.4
[6] = non-volatile solvent system: Ethyl oleate, hairless mouse skin
[7] = non-volatile solvent system: Isostearic acid, 200 mcL on hairless mouse skin
[8] = non-volatile solvent system: Oleic acid, hairless mouse skin
[9] = non-volatile solvent system: Polyethylene glycol 400, 200 mcL on hairless mouse skin
[10] = non-volatile solvent: Polyethylene glycol 400, hairless mouse skin
[11] = steady state flux of marketed product through hairless mouse or human epidermal membrane, method of Example 1, estimate
[12] = non-volatile solvent system: Glycerol, hairless mouse skin
[13] = non-volatile solvent system: Propylene glycol, hairless mouse skin
[14] = non-volatile solvent system: Span 20 (sorbitan laurate), hairless mouse skin
[15] = non-volatile solvent system: Isopropyl myristate, hairless mouse skin
[16] = solvents isopropyl myristate, ethyl oleate, propylene glycol, and Span 20, hairless mouse skin

## Nc1nc2c(ncn2COCCO)c(=O)[nH]1 [Acyclovir, acyclovir]
[1]; hairless mouse skin
  steady state flux in solid gel-forming formulation compared with flux-enabling non-volatile solvent alone: higher
[1]; high flux-enabling non-volatile solvent: ISA + 30% trolamine, hairless mouse skin
  Avg. Flux: 7 ± 2 μg/cm2/h
[1]; non-volatile solvent system: Ethyl oleate + 10% trolamine, hairless mouse skin
  Skin Flux: 0.2 ± 0.2 μg/cm^2/h
[1]; [6]
  Skin Flux: 0.2 ± 0.2 μg/cm^2/h
[1]; non-volatile solvent system: Isostearic acid + 10% trolamine, hairless mouse skin
  Skin Flux: 2.7 ± 0.6 μg/cm^2/h
[1]; non-volatile solvent system: Isostearic acid + 30% trolamine, hairless mouse skin
  Skin Flux: 7 ± 2 μg/cm^2/h
[1]; [7]
  Skin Flux: 0.1 ± 0.09 μg/cm^2/h
[1]; non-volatile solvent system: Oleic acid + 10% trolamine, hairless mouse skin
  Skin Flux: 3.7 ± 0.5 μg/cm^2/h
[1]; non-volatile solvent system: Oleic acid + 30% trolamine, hairless mouse skin
  Skin Flux: 14 ± 5 μg/cm^2/h
[1]; [8]
  Skin Flux: 0.4 ± 0.3 μg/cm^2/h
[1]; [9]
  Skin Flux: 0 μg/cm^2/h
[1]; non-volatile solvent system: Span 80 (sorbitan monooleate), hairless mouse skin
  Skin Flux: 0.07 ± 0.03 μg/cm^2/h
[1]; non-volatile solvent: Isostearic acid + 10% trolamine, hairless mouse skin
  Average Flux: 2.7 ± 0.6 μg/cm2/hr
[1]; [10]
  Average Flux: 0 μg/cm2/hr
[2]; [11]
  Estimated Therapeutically sufficient flux: 3 μg/cm^2/h
[2]; steady state flux of marketed product through hairless mouse or human epidermal membrane, method of Example 1, estimate, listed as acyclovir
  Estimated Therapeutically sufficient flux: about 3 μg/cm^2/h

## CCC(=O)O[C@]1(C(=O)CCl)[C@@H](C)C[C@H]2[C@@H]3CCC4=CC(=O)C=C[C@]4(C)[C@@]3(F)[C@@H](O)C[C@@]21C [Clobetasol propionate, clobetasol propionate]
[3]; all the neat non-volatile solutions studied, over a 30 hour time period, human cadaver skin
  Average Flux: less than 50 ng/cm^2/hr
[3]; non-volatile solvent: Isostearic acid (ISA), human epidermal membrane, mean and st. dev of three
  Average Flux: 0.019 ± 0.003 μg/cm2/hr
[3]; non-volatile solvent: Light mineral oil, human epidermal membrane, mean and st. dev of three
  Average Flux: 0.031 ± 0.003 μg/cm2/hr
[3]; non-volatile solvent: Propylene glycol, human epidermal membrane, mean and st. dev of three
  Average Flux: 0.0038 ± 0.0004 μg/cm2/hr
[3]; propylene glycol and isostearic acid at a weight ratio of 9:1 vs light mineral oil
  average flux relative to light mineral oil: 20 times
[3]; solvent: Ethyl oleate
  Skin Flux: 19.4 ± 1.6 ng/cm^2/h
[3]; solvent: Glycerol
  Skin Flux: 7.0 ± 4.1 ng/cm^2/h
[3]; solvent: Isostearic acid (ISA)
  Skin Flux: 19.4 ± 3.2 ng/cm^2/h
[3]; solvent: Light mineral oil
  Skin Flux: 31.2 ± 3.4 ng/cm^2/h
[3]; solvent: Olive oil
  Skin Flux: 13.6 ± 3.3 ng/cm^2/h
[3]; solvent: PG + ISA (Ratio of PG:ISA ranging from 200:1 to 1:1), value is for 9:1 mixture, human epidermal membrane
  Avg. Flux: 0.8 ± 0.2 μg/cm2/h
[3]; solvent: Propylene glycol/ISA (9:1)
  Skin Flux: 764.7 ± 193.9 ng/cm^2/h
[3]; solvent: Propylene glycol, 200 mcl
  Skin Flux: 3.8 ± 0.4 ng/cm^2/h

## C[C@H]1C[C@H]2[C@@H]3CCC4=CC(=O)C=C[C@]4(C)[C@@]3(F)[C@@H](O)C[C@]2(C)[C@@]1(O)C(=O)CCl [Clobetasol]
[2]; [11]
  Estimated Therapeutically sufficient flux: 0.05 μg/cm^2/h

## O=C(O)Cc1ccccc1Nc1c(Cl)cccc1Cl [Diclofenac]
[4]
  duration over which steady-state delivery is shown: 28 h
[4]; formulation (Example 16) tested on human epidermal membrane, solvent on hairless mouse skin
  steady state flux in solid gel-forming formulation compared with flux-enabling non-volatile solvent alone: lower
[2]; [11]
  Estimated Therapeutically sufficient flux: 1 μg/cm^2/h

## CC(C)Cn1cnc2c(N)nc3ccccc3c21 [Imiquimod, imiquimod]
[1]; hairless mouse skin
  steady state flux in solid gel-forming formulation compared with flux-enabling non-volatile solvent alone: unchanged
[1]; [12]
  Skin Flux: 0 μg/cm^2/h
[1]; [7]
  Skin Flux: 0.30 ± 0.06 μg/cm^2/h
[1]; [13]
  Skin Flux: 0.05 ± 0.02 μg/cm^2/h
[1]; [14]
  Skin Flux: 0.30 ± 0.05 μg/cm^2/h
[1]; non-volatile solvent system: Tween 60 (polyoxyethylene sorbitan monostearate), hairless mouse skin
  Skin Flux: 0.02 ± 0.01 μg/cm^2/h

## CC(C(=O)O)c1cccc(C(=O)c2ccccc2)c1 (stereo not shown) [Ketoprofen, ketoprofen]
[1]; hairless mouse skin
  steady state flux in solid gel-forming formulation compared with flux-enabling non-volatile solvent alone: lower
[1]; high flux-enabling non-volatile solvent: Propylene glycol, hairless mouse skin
  Avg. Flux: 90 ± 50 μg/cm2/h
[1]; [12]
  Skin Flux: 2 ± 1 μg/cm^2/h
[1]; [8]
  Skin Flux: 180 ± 20 μg/cm^2/h
[1]; [9]
  Skin Flux: 5 ± 2 μg/cm^2/h
[1]; [13]
  Skin Flux: 90 ± 50 μg/cm^2/h
[1]; [14]
  Skin Flux: 15 ± 3 μg/cm^2/h
[1]; [10]
  Average Flux: 5 ± 2 μg/cm2/hr
[1]; non-volatile solvent: Span 20, hairless mouse skin
  Average Flux: 15 ± 3 μg/cm2/hr
[2]; [11]
  Estimated Therapeutically sufficient flux: 16 μg/cm^2/h
[2]; steady state flux of marketed product through hairless mouse or human epidermal membrane, method of Example 1, estimate, listed as ketoprofen
  Estimated Therapeutically sufficient flux: about 16 μg/cm^2/h

## CCCN1CCCC[C@H]1C(=O)Nc1c(C)cccc1C [Ropivacaine, ropivacaine]
[4]
  duration over which steady-state delivery is shown: 30 h
[1]; hairless mouse skin
  steady state flux in solid gel-forming formulation compared with flux-enabling non-volatile solvent alone: higher
[1]; high flux-enabling non-volatile solvent: ISA, hairless mouse skin
  Avg. Flux: 11 ± 2 μg/cm2/h
[1]; high flux-enabling non-volatile solvent: Span 20, hairless mouse skin
  Avg. Flux: 26 ± 8 μg/cm2/h
[1]; [12]
  Skin Flux: 1.2 ± 0.7 μg/cm^2/h
[1]; [7]
  Skin Flux: 11 ± 2 μg/cm^2/h
[1]; non-volatile solvent system: Mineral oil, hairless mouse skin
  Skin Flux: 8.9 ± 0.6 μg/cm^2/h
[1]; [14]
  Skin Flux: 26 ± 8 μg/cm^2/h
[1]; non-volatile solvent system: Tween 20 (polyoxyethylene sorbitan monolaurate), hairless mouse skin
  Skin Flux: 2.4 ± 0.1 μg/cm^2/h
[1]; non-volatile solvent: Glycerol, hairless mouse skin
  Average Flux: 1.2 ± 0.7 μg/cm2/hr
[1]; non-volatile solvent: Mineral oil, hairless mouse skin
  Average Flux: 8.9 ± 0.6 μg/cm2/hr
[2]; Estimated flux based on known potency relative to lidocaine
  Estimated Therapeutically sufficient flux: 5 μg/cm^2/h
[2]; Estimated flux based on known potency relative to lidocaine, listed as ropivacaine base
  Estimated Therapeutically sufficient flux: about 5 μg/cm^2/h

## C[C@]12CC[C@H]3[C@@H](CCC4=CC(=O)CC[C@@]43C)[C@@H]1CC[C@@H]2O [Testosterone, testosterone]
[5]
  Estimated Therapeutically sufficient flux: 0.8 μg/cm^2/h

## O=C(O)Cc1ccccc1Nc1c(Cl)cccc1Cl [diclofenac acid]
[1]; [6]
  Skin Flux: 7 ± 3 μg/cm^2/h
[1]; [12]
  Skin Flux: 0 μg/cm^2/h
[1]; [15]
  Skin Flux: 8 ± 3 μg/cm^2/h
[1]; [13]
  Skin Flux: 5 ± 2 μg/cm^2/h
[1]; [14]
  Skin Flux: 3 ± 1 μg/cm^2/h
[1]; [16]
  steady state flux relative to currently available marketed products: no more than 10 times

## O=C(O)Cc1ccccc1Nc1c(Cl)cccc1Cl [diclofenac sodium]
[1]; [6]
  Skin Flux: 14 ± 4 μg/cm^2/h
[1]; [12]
  Skin Flux: 1.7 ± 0.3 μg/cm^2/h
[1]; [15]
  Skin Flux: 13 ± 3 μg/cm^2/h
[1]; [13]
  Skin Flux: 30 ± 30 μg/cm^2/h
[1]; [14]
  Skin Flux: 98 ± 20 μg/cm^2/h
[1]; [16]
  steady state flux relative to flux value for glycerol: at least 10 times
